Test results reported in patent US11873354B2, “Photobase generator, compound, photoreactive composition, and reaction product” (Tokyo University of Science Foundation, priority 2019, dated 2024).
Entries after “also recorded” stand apart in the source; their conditions may differ.

Assays:
Assay type in all cases: physicochemical
[1] = Color reaction experiment of phenol red (basicity, UV-Vis); settings: for peak showing basicity near 570 nm: methanol solution with phenol red, UV-Vis
Experimental: Next, it was confirmed that 2-methyl-2-imidazoline (2MI), which is generated by light irradiation to the compound (1)-2, is a stronger base than cyclohexylamine (CyA), which is an aliphatic amine, by a color reaction experiment of phenol red. First, 2MI, CyA and diazabicycloundecene (DBU) were prepared as bases, and 1.5 mL of methanol solution, in which the concentration was prepared at 2.0×10^−5 mol/L, was added to 1.5 mL of a methanol solution in which each base was dissolved. The basicity of each base was evaluated by measuring the UV-Vis spectrum of each of the solution.

[2] = Solubility test; settings: chloroform, dimethyl sulfoxide and the like; compared with compound (1)-2
[3] = Absorbance of compound in methanol under light irradiation (Test Examples 1, 2, 7, 8); settings: methanol solution; for molar absorption coefficient ε313: 313 nm; for molar absorption coefficient ε365: 365 nm
Experimental: (§1) The above-obtained compound (1)-1 was dissolved in methanol so as to have a concentration of 2.5×10^−5 mol/L. Then, using an LED lamp, the illuminance was set to 50 mW/cm^2, the exposure dose was set to 0, 50, 150 or 300 mJ/cm^2, and the obtained methanol solution was irradiated with light having a wavelength of 365 nm. Then, the absorbance of the compound (1)-1 was measured.
as §1, with “a mercury xenon” for “an LED”, “100” for “150”, “280” for “300”, “313” for “365”
as §1, with “(1)-3” for “(1)-1”, “1.5×10^−5” for “2.5×10^−5”, “100, 200” for “150”, “350” for “300”, “measured. In Test Example 7, the molar absorption coefficient was ε365=1.2×10^4 L/(mol cm).” for “measured.”
The above-obtained compound (1)-3 was dissolved in methanol so as to have a concentration of 1.5×10^−5 mol/L. Then, using a mercury xenon lamp, the illuminance was set to 10 mW/cm^2, the exposure dose was set to 0, 50, 100, 200 or 350 mJ/cm^2, and the obtained methanol solution was irradiated with light having a wavelength of 313 nm. Then, the absorbance of the compound (1)-3 was measured. In Test Example 8, the molar absorption coefficient was ε313=2.8×10^4 L/(mol cm).

[4] = pH test paper after irradiation of aqueous solution; settings: 365 nm
[5] = Preservation stability of liquid mixture with base-reactive compound (9)-301 (Test Examples 3, 4); settings: with (9)-301 in methanol, dark place, 25° C., 6 days
Experimental: A base-reactive compound (9)-301 (0.10 g) as shown below, the compound (1)-1 (0.012 g, 8 molar % with respect to the methoxy group in the base-reactive compound), and methanol (0.51 g) were added in a glass bottle to prepare a liquid mixture.
The liquid mixture was stored in a dark place at 25° C. for 6 days. After storage for 6 days, the glass bottle was shaken or inverted to confirm that the liquid mixture in the glass bottle was liquid.
The base-reactive compound (9)-301 (0.10 g), the compound (2)-1 (0.013 g, 8 molar % with respect to the methoxy group in the base-reactive compound), and methanol (0.50 g) were added in a glass bottle to prepare a liquid mixture.
The liquid mixture was stored in a dark place at 25° C. for 4 days. After storage for 4 days, the glass bottle was shaken or inverted to confirm that the liquid mixture in the glass bottle was gelled.

| SMILES | molar absorption coefficient ε313 [3] | molar absorption coefficient ε365 [3] | peak showing basicity near 570 nm [1] | also measured |
| --- | --- | --- | --- | --- |
| NC1CCCCC1 [CyA, cyclohexylamine] |  |  | no peak showing basicity appeared near 570 nm |  |
| C1CCC2=NCCCN2CC1 [DBU, diazabicycloundecene] |  |  | a peak showing basicity appeared near 570 nm |  |
| CC1=NCCN1C(=O)/C=C/c1ccccc1O [Compound (1)-2] |  |  |  | pH test paper after light irradiation [4]: discolored to the basic side |
| CC1=NCCN1 [Compound 2MI, 2-methyl-2-imidazoline] |  |  | a peak showing basicity appeared near 570 nm | relative basicity ([1]; from peak intensity near 570 nm): weaker than that of DBU; also recorded: stronger than that of CyA |

Further lines, with some results ahead:

| molar absorption coefficient ε313 [3] | molar absorption coefficient ε365 [3] | SMILES | peak showing basicity near 570 nm [1] | also measured |
| --- | --- | --- | --- | --- |
| 28000 L/mol/cm | 12000 L/mol/cm | CC1=NCCN1C(=O)/C=C/c1cc(C(C)(C)C)cc(C(C)(C)C)c1O [Compound (1)-3] |  | solubility [2]: improved in solubility |
| 16000 L/mol/cm | 3100 L/mol/cm | CN(C)C(=NC(=O)/C=C/c1ccccc1O)N(C)C [Compound (1)-1] |  | state of liquid mixture after storage [5]: liquid |
